Test results: US12480163B2, “Compositions and methods for identification assessment, prevention, and treatment of Ewing sarcoma using TP53 dependency biomarkers and modulators” (Dana-Farber Cancer Institute, Inc., priority 2018, dated 2025)
Entries after “also recorded” stand apart in the source; their conditions may differ.

Legend:
[1] = tested on: TP53 wild-type Ewing sarcoma cell lines; assay: Annexin V staining, flow cytometry (cell death); type: cell-based; settings: TC32 and CHLA258; 2 d ATSP-7041 (2 μM, 4 μM) or P5091 (6.5 μM, 8 μM), 3 d GSK2830371 (15 μM)
Procedure: Cell death was measured using flow cytometric analysis of Annexin V staining according to the manufacturer's instructions (eBioscience). Data analysis was completed using Flowjo 7.6 software (Treestar).

TP53 knockout cells = assay: CellTiter-Glo cell viability assay, TP53 knockout cells; type: cell-based; settings: TP53 knockout cells vs control cells, treated for 3 d
Procedure: Lentivirus was produced by transfecting HEK-293T cells with the pLentiV2 vector (Addgene plasmid 52961) and the packaging plasmids pCMV8.9 and pCMV-VSVG according to the FuGENER 6 (Roche) protocol. For lentiviral transduction, Ewing sarcoma cells were incubated with 2 ml of virus and 8 μg/ml of polybrene (Sigma-Aldrich). Cells were selected in puromycin (Sigma-Aldrich) 48 h after infection for single knockout experiments. For dual knockout experiments, PPM1D, USP7, and MDM4 sgRNA sequences were cloned into a LentiV2 vector with a blasticidin selection marker (Addgene plasmid 83480).
d. sgRNA Sequences sgRNAs were designed using the Broad Institute's sgRNA designer tool. The following sequences were used as control or to target the respective genes: control sgRNA, 5′-[…]-3′ (SEQ ID NO: 125); sgMDM2 2: 5′-[…]-3′ (SEQ ID NO: 126); sgMDM2 5: 5′-[…]-3′ (SEQ ID NO: 127); sgMDM4 4: 5′-[…]-3′ (SEQ ID NO: 128); sgMDM4 6: 5′-[…]-3′ (SEQ ID NO: 129); sgUSP7 1: 5′-[…]-3′ (SEQ ID NO: 130); sgUSP7 2: 5′-ACCATACCCAAATTATTC CG-3′ (SEQ ID NO: 131); sgPPMID 1: 5′-[…]-3′ (SEQ ID NO: 132); sgPPMID 2: 5′-[…]-3′ (SEQ ID NO: 133); sgTP53 1: 5′-[…]-3′ (SEQ ID NO: 134); sgTP53 2: 5′-[…]-3′ (SEQ ID NO: 135); sgTP53 4: 5′-[…]-3′ (SEQ ID NO: 136); and sgTP53 5: 5′-[…]-3′ (SEQ ID NO: 137). e. Protein Extraction and Immunoblotting
(§1) Cell viability was assessed using the CellTiter-Glo® Luminescent Cell Viability Assay (Promega). Viability assays were performed after Ewing sarcoma cell lines were infected with sgRNAs targeting TP53, MDM2, MDM4, PPM1D, or USP7 or treated with ATSP-7041, ATSP-7342, GSK2830371, P5091, XL-188, or vehicle control.

Wip1 = target: T1, Wip1 (Homo sapiens, UniProt O15297); assay: Western immunoblotting of Wip1 and pSer15-p53; type: cell-based; settings: Western blot
T1 construct: Whole-cell lysates were extracted in cell lysis buffer (Cell Signaling); endogenous in cells; host or cells: TP53 wild-type Ewing sarcoma cell lines
T1 sequence (O15297 1-605): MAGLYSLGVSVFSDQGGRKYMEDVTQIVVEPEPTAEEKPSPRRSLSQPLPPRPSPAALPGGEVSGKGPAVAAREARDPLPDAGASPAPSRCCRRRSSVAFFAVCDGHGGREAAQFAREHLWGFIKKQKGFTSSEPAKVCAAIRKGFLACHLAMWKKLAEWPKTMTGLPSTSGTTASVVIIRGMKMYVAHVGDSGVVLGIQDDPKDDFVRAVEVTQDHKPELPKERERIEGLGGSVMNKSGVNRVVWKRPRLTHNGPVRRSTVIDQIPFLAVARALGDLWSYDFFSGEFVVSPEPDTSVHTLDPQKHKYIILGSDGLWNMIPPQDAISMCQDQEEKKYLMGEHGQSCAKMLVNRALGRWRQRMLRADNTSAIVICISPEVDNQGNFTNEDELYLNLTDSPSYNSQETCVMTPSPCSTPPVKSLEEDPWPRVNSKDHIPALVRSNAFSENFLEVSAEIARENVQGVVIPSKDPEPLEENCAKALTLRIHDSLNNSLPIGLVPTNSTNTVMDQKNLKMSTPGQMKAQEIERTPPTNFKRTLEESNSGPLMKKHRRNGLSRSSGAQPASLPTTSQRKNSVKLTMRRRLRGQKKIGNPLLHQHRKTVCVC
Procedure: (§2) Whole-cell lysates were extracted in cell lysis buffer (Cell Signaling) supplemented with EDTA-free protease inhibitors and PhosSTOP™ phosphatase inhibitors (Roche). Western immunoblotting was performed using standard techniques. Primary antibodies used included anti-MDM2 (ab178938; Abcam), anti-MDM2 (86934; Cell Signaling), anti-MDM4 (A300-287A; Bethyl Laboratories), anti-p53 (2527S; Cell Signaling), anti-p21 (2946S; Cell Signaling), anti-Vinculin (18058; Abcam), anti-Wip1 (A300-664A; Bethyl Laboratories), anti-pSer15-p53 (9284; Cell Signaling), anti-USP7 (A300-033A; Bethyl Laboratories), and anti-Tubulin (cp06; CalBiochem).

[2] = tested on: TP53 wild-type Ewing sarcoma cell lines; assay: CellTiter-Glo cell viability assay, TP53 wild-type Ewing sarcoma cell lines; type: cell-based; settings: treated for 3 d
Procedure: as §1

[3] = tested on: MDM2, p53, and p21 protein levels; assay: Western immunoblotting of MDM2, p53, p21 in TP53 wild-type Ewing sarcoma cell lines; type: cell-based; settings: for MDM2 protein levels, combination of ATSP-7041 and P5091 compared with ATSP-7041 alone: TC32 and TC138 cells, 2 d
Procedure: as §2

MDM2 protein levels = assay: Western immunoblotting of MDM2 in TP53 mutated cell lines A673 and EWS502; type: cell-based; settings: TP53 mutated cell lines A673 and EWS502, 1 μM; 4 h
Procedure: as §2

p53-MDM4 complex = target: T2, p53-MDM4 complex (Homo sapiens, UniProt O15151); assay: MDM4 immunoprecipitation from TC32 cell lysates, p53 and MDM4 Western blot; type: binding; settings: TC32 lysates after RG7388 pre-treatment, 20 μM compound
T2 construct: endogenous in cells; host or cells: TC32 Ewing sarcoma cells (TP53 wild-type), lysed in NP-40 buffer
T2 sequence (O15151 1-490): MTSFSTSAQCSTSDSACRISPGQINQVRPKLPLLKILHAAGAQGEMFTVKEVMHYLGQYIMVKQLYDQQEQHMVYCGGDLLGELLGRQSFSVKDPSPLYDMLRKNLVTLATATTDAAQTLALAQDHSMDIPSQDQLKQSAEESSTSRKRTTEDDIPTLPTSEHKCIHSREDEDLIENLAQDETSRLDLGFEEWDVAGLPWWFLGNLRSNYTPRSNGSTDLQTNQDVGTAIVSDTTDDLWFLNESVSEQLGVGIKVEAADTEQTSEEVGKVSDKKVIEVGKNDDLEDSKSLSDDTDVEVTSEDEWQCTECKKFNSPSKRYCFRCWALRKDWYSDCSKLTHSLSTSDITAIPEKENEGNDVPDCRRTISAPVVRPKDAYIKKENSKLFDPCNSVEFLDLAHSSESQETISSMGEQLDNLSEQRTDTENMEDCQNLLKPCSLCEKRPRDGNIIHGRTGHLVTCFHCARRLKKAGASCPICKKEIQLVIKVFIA
Procedure: g. Immunoprecipitation Experiments
Five million TC32 cells were treated with either 10 μM RG7388 or vehicle control for 4 h. Cells were lysed in buffer A (150 mM NaCl, 50 mM Tris, and 0.5% NP-40, pH 7.4) and combined with anti-MDM4 antibody (A300-287A; Bethyl Laboratories) in the presence of 20 μM RG7388, ATSP-7041, or vehicle control in a total volume of 1 ml, rotating at 4° C. for 16 h. Subsequently, 50 μl washed Protein AG beads (sc-2003; Santa Cruz) were added and the mixture was incubated for 1 h rotating at 4° C. Beads were washed three times in buffer A, and protein complexes were eluted by boiling in NuPage® LDS Sample Buffer (NP0007; Invitrogen) supplemented with DTT. Samples were analyzed by Western blot with antibodies against p53 DO-1 (sc-126; Santa Cruz) and MDM4 (A300-287A; Bethyl Laboratories).

[4] = TP53 wild-type Ewing sarcoma cell lines, micromolar concentrations

Row | Compound | cell death measured by Annexin V staining [1] | effect of TP53 knockout on the cytotoxic effect of the compound (viability) (TP53 knockout cells) | phosphorylation of Serine 15 of p53 (pSer15-p53) (Wip1; single agent) | Wip1 protein levels (Wip1; time-dependent) | cell viability, normalized to vehicle control [2, 4] | MDM2 protein levels, combination of ATSP-7041 and P5091 compared with ATSP-7041 alone [3] | MDM2 protein levels, combination of ATSP-7041 and P5091 compared with ATSP-7041 alone ([3]; listed as P0951) | p53 and p21 protein levels ([3]; TP53 wild-type cells TC32 and TC138, Western blot) | MDM2 protein levels (MDM2 protein levels) | disruption of p53-MDM4 complex (MDM4 immunoprecipitation) (p53-MDM4 complex) | MDM2 protein levels ([3]; TP53 wild-type cell lines TC32 and TC138, 1 μM, 4 h) | cell viability, normalized to vehicle control ([2]; TC32 cells)
1 | Cc1ncc(Cl)cc1NCc1ccc(C(=O)N[C@@H](CC2CCCC2)C(=O)NC2CC2)s1 [GSK2830371, 5-[[(5-Chloro-2-methyl-3-pyridinyl)amino]methyl]-N-[(1S)-1-(cyclopentylmethyl)-2-(cycloprpylamino)-2-oxoethyl]-2-thiophenecarboxamide] | triggers cell death; also recorded: GSK2830371-induced cell death | less effective | increased pSer15-p53; also recorded: triggered a surge in phosphorylation of Serine 15 of p53 | decreased protein levels of Wip1; also recorded: reduced the protein levels of Wip1 | reduce viability; also recorded: notable increase in susceptibility |  |  |  |  |  |  | 
2 | CC(=O)c1cc([N+](=O)[O-])c(Sc2cccc(Cl)c2Cl)s1 [P5091] | triggers cell death; also recorded: P5091-induced cell death | did not rescue |  |  | reduce viability; also recorded: relatively more cytotoxic | decreased MDM2 protein levels; also recorded: decreased the level of MDM2 protein | suppresses the feedback up-regulation of MDM2 | increase in p53 and p21 protein levels; also recorded: increased p53 and p21 protein levels in a time-dependent fashion |  |  |  | 
3 | COc1cc(C(=O)O)ccc1NC(=O)[C@@H]1N[C@@H](CC(C)(C)C)[C@](C#N)(c2ccc(Cl)cc2F)[C@H]1c1cccc(Cl)c1F [RG7388] |  |  |  |  |  |  |  |  | no response; also recorded: no increase in MDM2 protein | does not interrupt binding; also recorded: unable to dissociate | increase in MDM2 protein levels | 
4 | C[C@H](CC(=O)N1CCC(O)(Cn2cnc3cc(NC(=O)CCN4CCN(C)CC4)ccc3c2=O)CC1)c1ccccc1 [XL-188, (R)—N-(3-((4-hydroxy-1-(3-phenylbutanoyl)piperidin-4-yl)methyl)-4-oxo-3,4-dihydroquinazolin-7-yl)-3-(4-methylpiperazin-1-yl) propanamide] |  | completely reversed the cytotoxic effect |  |  | reduced viability predominantly in TP53 wild-type Ewing sarcoma cell lines |  |  |  |  |  |  | especially robust effect
